Experimental data taken from US20040063843A1, “Coating solutions” (Honeywell International, Inc., priority 2002, published 2004).

Legend:
[1] = format: physicochemical
Protocol: Coating solvent was prepared by blending in a vessel a measured volume of a liquid carrier (tetrafluoropropanol) and as a surface tension-reducing agent 1,1,1,3,3-pentafluoropropane (HFC245fa) to give a solvent having the constituent volumetric ratios shown in Table I, below.
Solubility was determined by adding dye powder slowly to a weighed 100 ml aliquot of the coating solvent in a vessel. The solvent was stirred to dissolve the dye. When no more dye would dissolve, the dye addition was stopped and the solvent reweighed to determine the amount of dye that had been dissolved in the solvent.

[2] = Surface tension measurement, Nouy ring method; format: physicochemical; conditions: 20 ml aliquot, Kruss Model K 10 ST; liquid carrier tetrafluoropropanol, no coating moiety
Protocol: Samples of coating solution (Examples 8, 9, 10, and 11) were prepared by blending in a vessel a measured volume of a liquid carrier (tetrafluoropropanol) and a fluorocarbon surface tension-reducing agent (1,1,1,3,3-pentafluoropropane, HFC245fa) to give the Vol. % compositions indicated in Table 3, below.
Surface tension was measured using the Nouy ring method and a Kruss Instrument Model K 10 ST.
In a typical determination, a 20 ml aliquot of the liquid to be tested was placed in the instrument and the surface tension was measured by the published procedure described above. Measurements were carried out for neat tetrafluropropanol (a liquid carrier, Table 3, Comparative Example #3), neat 1,1,1,3,3-pentafluropropane (HFC245fa, as a fluorocarbon surface tension-reducing agent, Table 3, Example # 11), and coating solution formulations (sans a coating moiety) comprising mixtures of tetrafluropropanol with 25 Vol. %, 50 Vol. %, and 75 Vol. % 1,1,1,3,3-pentafluropropane (Table 3, Examples 8, 9 and 10 respectively).

Dye A Solubility [1] [g/100 ml] | Dye B Solubility [1] [g/100 ml] | Surface Tension [2] [mN/m] | Compound
10.7 | 11.3 |  | Tetrafluoropropanol [compound 1]
 |  | 18 | FC(F)CC(F)(F)F [Example # 11, 1,1,1,3,3-pentafluropropane]
